Source: US11130756B2, “[1,2,4]Triazolo[4,3-A]pyridinyl substituted indole compounds” (BRISTOL-MYERS SQUIBB COMPANY, priority 2017, dated 2021)

Key:
Assay type in all cases: cell-based
human TLR7 = biological target: T1, human TLR7 (Homo sapiens, UniProt Q9NYK1); assay: TLR7 inhibition reporter assay (HEK-Blue, SEAP); details: HEK-Blue cells overexpressing human TLR7, gardiquimod 7.5 μM, 22 hour incubation
T1 construct: host or cells: HEK-Blue cells
T1 sequence (Q9NYK1 27-1049): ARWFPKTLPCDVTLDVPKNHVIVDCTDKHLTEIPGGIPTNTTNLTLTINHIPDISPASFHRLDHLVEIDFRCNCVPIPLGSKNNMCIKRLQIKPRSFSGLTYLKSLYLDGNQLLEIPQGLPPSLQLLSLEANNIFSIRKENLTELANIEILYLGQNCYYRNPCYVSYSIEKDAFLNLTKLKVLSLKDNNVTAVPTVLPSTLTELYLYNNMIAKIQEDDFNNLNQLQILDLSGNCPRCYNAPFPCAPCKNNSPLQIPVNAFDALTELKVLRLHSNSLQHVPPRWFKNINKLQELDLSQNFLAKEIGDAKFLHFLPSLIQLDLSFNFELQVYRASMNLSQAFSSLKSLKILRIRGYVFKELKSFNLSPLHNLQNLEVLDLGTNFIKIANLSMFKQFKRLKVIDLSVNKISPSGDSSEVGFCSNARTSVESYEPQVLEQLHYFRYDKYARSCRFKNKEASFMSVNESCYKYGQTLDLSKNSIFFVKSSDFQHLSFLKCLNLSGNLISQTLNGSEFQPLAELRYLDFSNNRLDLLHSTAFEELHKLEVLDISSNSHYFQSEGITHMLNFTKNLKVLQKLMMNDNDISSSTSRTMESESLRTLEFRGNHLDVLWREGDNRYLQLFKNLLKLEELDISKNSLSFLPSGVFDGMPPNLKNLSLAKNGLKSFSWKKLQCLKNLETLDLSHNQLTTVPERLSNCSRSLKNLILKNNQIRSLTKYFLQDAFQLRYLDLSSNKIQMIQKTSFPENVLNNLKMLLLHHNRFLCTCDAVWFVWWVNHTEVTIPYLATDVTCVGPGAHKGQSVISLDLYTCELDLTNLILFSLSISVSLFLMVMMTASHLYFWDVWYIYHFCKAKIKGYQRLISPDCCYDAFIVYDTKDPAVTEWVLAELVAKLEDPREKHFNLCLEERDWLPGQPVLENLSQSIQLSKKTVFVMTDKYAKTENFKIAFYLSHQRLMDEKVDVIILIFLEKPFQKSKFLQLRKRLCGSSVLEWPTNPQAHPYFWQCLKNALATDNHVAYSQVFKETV
Description: (§1) TLR7/8/9 Inhibition Reporter Assays
(§2) HEK-Blue™-cells (Invivogen) overexpressing human TLR7, TLR8 or TLR9 receptors were used for screening inhibitors of these receptors using an inducible SEAP (secreted embryonic alkaline phosphatase) reporter gene under the control of the IFN-β minimal promoter fused to five NF-κB and AP-1-binding sites. Briefly, cells are seeded into Greiner 384 well plates (15000 cells per well for TLR7, 20,000 for TLR8 and 25,000 for TLR9) and then treated with test compounds in DMSO to yield a final dose response concentration range of 0.05 nM-50 μM. After a 30 minute compound pre-treatment at room temperature, the cells are then stimulated with a TLR7 ligand (gardiquimod at a final concentration of 7.5 μM), TLR8 ligand (R848 at a final concentration of 15.9 μM) or TLR9 ligand (ODN2006 at a final concentration of 5 nM) to activate NF-κB and AP-1 which induce the production of SEAP. After a 22 hour incubation at 37° C., 5% CO2, SEAP levels are determined with the addition of HEK-Blue™ Detection reagent (Invivogen), a cell culture medium that allows for detection of SEAP, according to manufacturer's specifications. The percent inhibition is determined as the % reduction in the HEK-Blue signal present in wells treated with agonist plus DMSO alone compared to wells treated with a known inhibitor.

human TLR8 = biological target: T2, human TLR8 (Homo sapiens, UniProt Q9NR97); assay: TLR8 inhibition reporter assay (HEK-Blue, SEAP); details: HEK-Blue cells overexpressing human TLR8, R848 15.9 μM, 22 hour incubation
T2 construct: host or cells: HEK-Blue cells
T2 sequence (Q9NR97 27-1041): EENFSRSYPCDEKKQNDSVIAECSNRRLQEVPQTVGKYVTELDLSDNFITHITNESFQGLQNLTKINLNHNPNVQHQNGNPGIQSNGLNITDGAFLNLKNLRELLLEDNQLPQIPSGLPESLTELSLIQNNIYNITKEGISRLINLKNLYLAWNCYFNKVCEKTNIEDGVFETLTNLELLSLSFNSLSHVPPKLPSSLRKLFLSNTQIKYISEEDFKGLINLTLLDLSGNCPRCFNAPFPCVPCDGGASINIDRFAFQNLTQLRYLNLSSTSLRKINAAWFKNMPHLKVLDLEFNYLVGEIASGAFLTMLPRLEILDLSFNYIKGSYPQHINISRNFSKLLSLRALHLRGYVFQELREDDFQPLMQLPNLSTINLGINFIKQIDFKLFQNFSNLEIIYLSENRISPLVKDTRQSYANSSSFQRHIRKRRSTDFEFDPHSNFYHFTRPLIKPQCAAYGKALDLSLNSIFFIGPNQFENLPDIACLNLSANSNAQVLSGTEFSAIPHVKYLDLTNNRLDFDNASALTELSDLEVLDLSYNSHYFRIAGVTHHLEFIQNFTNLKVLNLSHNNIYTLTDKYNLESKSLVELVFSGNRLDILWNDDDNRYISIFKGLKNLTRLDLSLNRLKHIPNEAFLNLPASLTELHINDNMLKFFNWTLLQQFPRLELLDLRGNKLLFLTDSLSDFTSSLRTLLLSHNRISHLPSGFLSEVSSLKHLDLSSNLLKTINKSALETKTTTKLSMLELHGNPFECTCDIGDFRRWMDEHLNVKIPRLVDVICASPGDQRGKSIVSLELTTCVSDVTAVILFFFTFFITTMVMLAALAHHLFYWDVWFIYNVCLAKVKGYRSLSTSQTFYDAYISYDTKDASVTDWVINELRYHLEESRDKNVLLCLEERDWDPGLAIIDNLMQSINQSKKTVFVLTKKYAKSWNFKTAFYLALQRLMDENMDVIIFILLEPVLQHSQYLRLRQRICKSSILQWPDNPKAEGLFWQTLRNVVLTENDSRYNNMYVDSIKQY
Description: as §1, §2

human TLR9 = biological target: T3, human TLR9 (Homo sapiens, UniProt Q9NR96); assay: TLR9 inhibition reporter assay (HEK-Blue, SEAP); details: HEK-Blue cells overexpressing human TLR9, ODN2006 5 nM, 22 hour incubation
T3 construct: host or cells: HEK-Blue cells
T3 sequence (Q9NR96 26-1032): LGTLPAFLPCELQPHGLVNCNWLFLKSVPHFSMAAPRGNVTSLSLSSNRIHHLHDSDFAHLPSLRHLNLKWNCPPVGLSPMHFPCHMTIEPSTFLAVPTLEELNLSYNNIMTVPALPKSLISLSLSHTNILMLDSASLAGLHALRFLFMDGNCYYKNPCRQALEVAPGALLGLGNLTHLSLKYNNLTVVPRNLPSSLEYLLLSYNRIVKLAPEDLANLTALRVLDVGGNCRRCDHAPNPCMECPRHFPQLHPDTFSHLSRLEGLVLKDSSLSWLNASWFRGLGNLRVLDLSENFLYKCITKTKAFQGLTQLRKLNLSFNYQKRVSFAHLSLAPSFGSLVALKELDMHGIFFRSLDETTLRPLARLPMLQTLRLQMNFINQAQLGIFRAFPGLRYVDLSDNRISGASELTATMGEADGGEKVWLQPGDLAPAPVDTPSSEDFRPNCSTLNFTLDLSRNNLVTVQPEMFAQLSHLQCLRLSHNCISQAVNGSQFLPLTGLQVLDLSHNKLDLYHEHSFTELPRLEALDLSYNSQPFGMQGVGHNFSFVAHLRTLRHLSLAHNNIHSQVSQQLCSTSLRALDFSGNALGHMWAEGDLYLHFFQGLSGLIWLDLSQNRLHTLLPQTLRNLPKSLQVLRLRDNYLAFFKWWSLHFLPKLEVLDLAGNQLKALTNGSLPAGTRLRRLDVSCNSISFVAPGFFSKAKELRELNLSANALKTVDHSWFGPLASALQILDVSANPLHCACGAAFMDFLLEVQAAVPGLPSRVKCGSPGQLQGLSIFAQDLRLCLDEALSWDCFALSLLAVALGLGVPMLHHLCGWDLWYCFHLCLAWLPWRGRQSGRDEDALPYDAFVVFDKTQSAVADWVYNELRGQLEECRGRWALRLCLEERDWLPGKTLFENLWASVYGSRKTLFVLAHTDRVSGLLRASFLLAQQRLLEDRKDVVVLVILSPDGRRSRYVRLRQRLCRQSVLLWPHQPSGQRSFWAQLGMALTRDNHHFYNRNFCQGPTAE
Description: as §1, §2

Row | IC50 (human TLR7) [nM] | IC50 (human TLR8) [nM] | IC50 (human TLR9) [nM] | Structure (SMILES)
1 | 4.8 | 12.5 | 528 | Cc1cc(-c2[nH]c3ccc(C4CCNCC4)cc3c2C(C)C)cn2cnnc12 [Example 2, 6-(3-isopropyl-5-(piperidin-4-yl)-1H-indol-2-yl)-8-methyl-[1,2,4]triazolo[4,3-a]pyridine]
2 | 78.7 | 30.4 | 216 | Cc1c(-c2[nH]c3ccc(C4CCN(C(=O)CN(C)C)CC4)cc3c2C(C)C)ccc2nncn12 [Example 108, 2-(dimethylamino)-1-(4-(3-isopropyl-2-(5-methyl-[1,2,4]triazolo[4,3-a]pyridin-6-yl)-1H-indol-5-yl)piperidin-1-yl)ethan-1-one]
3 | 1.9 | 33.4 | 344 | COc1cc(-c2[nH]c3ccc(C4CCN(C5CCOCC5)CC4)cc3c2C(C)C)cn2cnnc12 [Example 88, 6-(3-isopropyl-5-(1-(tetrahydro-2H-pyran-4-yl)piperidin-4-yl)-1H-indol-2-yl)-8-methoxy-[1,2,4]triazolo[4,3-a]pyridine]
4 | 31 | 11.5 | 746 | Cc1cc(-c2[nH]c3ccc(C4CCNCC4)cc3c2C(C)C)c(C)n2cnnc12 [Example 9, 6-(3-isopropyl-5-(piperidin-4-yl)-1H-indol-2-yl)-5,8-dimethyl-[1,2,4] triazolo[4,3-a]pyridine]
5 | 1.2 | 4.5 | 919 | Cc1cc(-c2[nH]c3ccc(C4CCN(CCCC(F)(F)F)CC4)cc3c2C(C)C)cn2cnnc12 [Example 36, 6-(3-isopropyl-5-(1-(4,4,4-trifluorobutyl)piperidin-4-yl)-1H-indol-2-yl)-8-methyl-[1,2,4]triazolo[4,3-a]pyridine]
6 | 4.6 | 107 | 3120 | Cc1c(-c2[nH]c3ccc(C4CCNCC4)cc3c2C(C)C)cn2cnnc2c1Cl [Example 10, 8-chloro-6-(3-isopropyl-5-(piperidin-4-yl)-1H-indol-2-yl)-7-methyl-[1,2,4]triazolo[4,3-a]pyridine]

Second part, the compound before the results:

Row | Structure (SMILES) | IC50 (human TLR7) [nM] | IC50 (human TLR8) [nM] | IC50 (human TLR9) [nM]
7 | COc1cc(-c2[nH]c3ccc(C4CCNCC4)cc3c2C(C)C)cn2cnnc12 [Example 11, 6-(3-isopropyl-5-(piperidin-4-yl)-1H-indol-2-yl)-8-methoxy-[1,2,4]triazolo[4,3-a]pyridine] | 6.2 | 74 | 563
8 | Cc1cc(-c2[nH]c3ccc(C4CCN(CC5(C)COC5)CC4)cc3c2C(C)C)cn2cnnc12 [Example 29, 6-(3-isopropyl-5-(1-((3-methyloxetan-3-yl)methyl)piperidin-4-yl)-1H-indol-2-yl)-8-methyl-[1,2,4]triazolo[4,3-a]pyridine] | 0.7 | 1.1 | 4330
9 | Cc1c(-c2[nH]c3ccc(C4CCN(C5CCOC5)CC4)cc3c2C(C)C)cn2cnnc2c1C (single isomer, unassigned) [Example 103, 6-(3-isopropyl-5-(1-(tetrahydrofuran-3-yl)piperidin-4-yl)-1H-indol-2-yl)-7,8-dimethyl-[1,2,4]triazolo[4,3-a]pyridine] | 5.1 | 11.7 | 10200
10 | Cc1cc(-c2[nH]c3ccc(C4CCN(C(=O)CN(C)C)CC4)cc3c2C(C)C)cn2cnnc12 [Example 104, 2-(dimethylamino)-1-(4-(3-isopropyl-2-(8-methyl-[1,2,4]triazolo[4,3-a]pyridin-6-yl)-1H-indol-5-yl)piperidin-1-yl)ethanone] | 2.5 | 14.6 | 917
11 | Cc1c(-c2[nH]c3ccc(C4CCN(CCN5CCCS5(=O)=O)CC4)cc3c2C(C)C)cn2cnnc2c1Cl [Example 53, 2-(2-(4-(2-(8-chloro-7-methyl-[1,2,4]triazolo[4,3-a]pyridin-6-yl)-3-isopropyl-1H-indol-5-yl)piperidin-1-yl)ethyl) isothiazolidine 1,1-dioxide] | 0.9 | 10.1 | 565
12 | Cc1c(-c2[nH]c3ccc(C4C[C@H]5CC[C@@H](C4)N5C4COC4)cc3c2C(C)C)cn2cnnc2c1C (single isomer, unassigned) [Example 122] | 2.3 | 98.9 | 5940
13 | Cc1c(-c2[nH]c3ccc(C4CCNCC4)cc3c2C(C)C)ccc2nncn12 [Example 5, 6-(3-isopropyl-5-(piperidin-4-yl)-1H-indol-2-yl)-5-methyl-[1,2,4]triazolo[4,3-a]pyridine] | 154 | 133 | 1240
